85 compounds from ChEMBL document CHEMBL5604062, “ASAP - ZIKV NS2B-NS3 protease fluorescence dose response” (2024) can be followed below.

The target in the experiment is Nonstructural protein 3 (Zika virus, UniProt A0A024AXB9). Description: Functional biochemical assay to identify treatments for viral infectious disease that targets Zika NS2B-NS3 protease. Utilizing a direct enzyme activity measurement method, reading the fluorescence intensity is used to characterize the relative potency of inhibitors as IC50. Also on record: species or system PRVABC59.

Several values for one entry are separate records, joined by “and”; a condition that tells them apart may be missing. Identical values can stand only once.

Nonstructural protein 3, sequence (A0A024AXB9 whole entry): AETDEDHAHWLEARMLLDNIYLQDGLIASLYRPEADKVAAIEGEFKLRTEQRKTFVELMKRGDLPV

Compound `CCn1c(=O)c(N2CCCC[C@H](N3CCCC3)C2)nc2ccccc21` showed an IC50 of more than 99.5 µM. `CCn1cc(-c2ccnc(N(C)C)c2)nc(N2CC[C@@H](CO)C2)c1=O` displayed an IC50 of more than 99.5 µM. The result for `N#Cc1ccccc1-c1ccc([C@H](NC(=O)OCc2ccccc2)C(=O)Nc2cccc(CN)c2)cc1` reads 12 µM; that for `COc1ncccc1-c1ccc([C@@H](NC(=O)OCc2ccccc2)C(=O)Nc2cccc(CN)c2)cc1`, 17.9 µM. For `CCNC(=O)[C@@H](NC(=O)OCc1ccccc1)c1ccc(OCc2ccccc2)cc1`, the IC50 was more than 99.5 µM.

The compound `CCn1c(=O)c(N2C[C@H]3C[C@@H](O)CC[C@H]3C2)nc2ccccc21` came in with an IC50 of more than 99.5 µM.

Regarding `NCc1cccc(NC(=O)[C@@H](NC(=O)OCc2ccccc2)c2ccc(-c3ccc4scnc4c3)cc2)c1`, 12.3 µM corresponded to half-maximal inhibition (IC50). This lies in the double-digit micromolar range.

Compound `Cn1cc(Nc2ccc(S(=O)(=O)Nc3ccc(Cl)cc3C(=O)O)cn2)cn1` gave an IC50 of more than 99.5 µM. Compound `NCc1cccc(NC(=O)[C@@H](NC(=O)OCc2ccccc2)c2ccc(-c3ccnc(N)c3)cc2)c1` displayed an IC50 of more than 99.5 µM. Regarding `O=C(NS(=O)(=O)C1CC1)c1cc(Cl)ccc1NS(=O)(=O)c1ccc(Oc2ccccc2Cl)cc1`, the IC50 was 19.5 µM. With `CCc1ccc(-c2ccc([C@@H](NC(=O)OCc3ccccc3)C(=O)Nc3cccc(CN)c3)cc2)cc1` the figure was 5.8 µM; with `CCn1cc(-c2cncc(OC)c2)nc(N2CC[C@@H](CO)C2)c1=O`, more than 99.5 µM; with `CN1Cc2ccc(CNC(=O)[C@@H](NC(=O)OCc3ccccc3)c3ccc(OCc4ccccc4)cc3)cc2C1`, 72.4 µM. The result for `CC[C@H]1CN2CCC[C@H]2CN1c1nc2ccccc2n(CC)c1=O` reads more than 99.5 µM. With `CCn1c(=O)c(N2C[C@@H]3CN(C4CCC4)C[C@@H]3C2)nc2ccccc21` the figure was more than 99.5 µM; with `CCn1c(=O)c(N2CC3(CCC3)C[C@@H]2C)nc2ccccc21`, more than 99.5 µM; with `CCn1cc(-c2cccc(CN(C)C)c2)nc(N2CC[C@@H](CO)C2)c1=O`, more than 99.5 µM. Compound `CC(C)c1cc(-c2ccc([C@@H](NC(=O)OCc3ccccc3)C(=O)Nc3cccc(CN)c3)cc2)on1` gave an IC50 of 24 µM. The result for `CCn1cc(-c2ccccc2C(C)C)nc(N2CC[C@@H](CO)C2)c1=O` reads more than 99.5 µM. With `NCc1cccc(NC(=O)[C@@H](NC(=O)OCc2ccccc2)c2ccc(-c3ccnc4[nH]ccc34)cc2)c1` the figure was more than 99.5 µM; with `CCn1cc(-c2ccc3c(c2)CCNC3)nc(N2CC[C@@H](CO)C2)c1=O`, more than 99.5 µM; with `CCn1cc(-c2ccccc2N)nc(N2CC[C@@H](CO)C2)c1=O`, more than 99.5 µM.

`CCn1c(=O)c(N2C[C@@H]3CS(=O)(=O)C[C@@H]3C2)nc2ccccc21` showed an IC50 of more than 99.5 µM. In the case of `CCn1cc(-c2ccc3ocnc3c2)nc(N2CC[C@@H](CO)C2)c1=O`, the IC50 is more than 99.5 µM. With `CCn1c(=O)c(N2CC[C@@H](CN3CCCCC3)C2)nc2ccccc21` the figure was more than 99.5 µM. On to `Cc1noc(C)c1-c1ccc([C@@H](NC(=O)OCc2ccccc2)C(=O)Nc2cccc(CN)c2)cc1`, for which the IC50 came to 57.3 µM. Consider `CN1CCc2ccc(C(=O)N3CCNc4ccccc4C3)cc2C1`, for which the IC50 was more than 99.5 µM. Compound `O=C(O)c1cc(Cl)ccc1NS(=O)(=O)c1ccc(N[C@H]2CCCOC2)nc1` came in with an IC50 of more than 99.5 µM. With `CCn1cc(-c2cn(C)nc2C)nc(N2CC[C@@H](CO)C2)c1=O`, the IC50 was more than 99.5 µM. With `CCn1c(=O)c(N2CCC[C@H]2c2noc(C)n2)nc2ccccc21` the figure was more than 99.5 µM; with `Cc1nc(-c2ccc([C@@H](NC(=O)OCc3ccccc3)C(=O)Nc3cccc(CN)c3)cc2)cs1`, more than 99.5 µM. On to `CCn1c(=O)c(N2CC[C@@]3(COC(=O)N3)C2)nc2ccccc21`, for which the IC50 was more than 99.5 µM.

As to `NCc1cccc(NC(=O)[C@@H](NC(=O)OCc2ccccc2)c2ccc(C3=CCCOC3)cc2)c1`, the IC50 is 68.7 µM. With `CN1CC[C@H](C2CCN(S(=O)(=O)c3cc(F)cc(C(=O)O)c3)CC2)C1` the figure was more than 99.5 µM; with `CCn1cc(C(=O)O)nc(N2CC[C@@H](CO)C2)c1=O`, more than 99.5 µM; with `O=C(N[C@@H](C(=O)NCc1cccnc1)c1ccc(OCc2ccccc2)cc1)OCc1ccccc1`, more than 99.5 µM.

Turning to `COc1cccc(-c2ccc([C@@H](NC(=O)OCc3ccccc3)C(=O)Nc3cccc(CN)c3)cc2)c1`, the IC50 is 7.03 µM and 8.01 µM.

`Cc1cccc(-c2ccc([C@@H](NC(=O)OCc3ccccc3)C(=O)Nc3cccc(CN)c3)cc2)c1` returned an IC50 of 7.4 µM. On to `CCn1c(=O)c(N2CCC[C@H]2c2cncc(Br)c2)nc2ccccc21`, for which the IC50 is more than 99.5 µM.

The compound `O=C(N[C@@H](C(=O)NCc1c[nH]cn1)c1ccc(OCc2ccccc2)cc1)OCc1ccccc1` displayed an IC50 of more than 99.5 µM. As for `Cc1ccc(COc2ccc(S(=O)(=O)Nc3ccc(Cl)cc3C(=O)O)cc2)cc1`, the IC50 stood at 17.3 µM. For the compound `O=C(N[C@@H](C(=O)NC1CCCCC1)c1ccc(OCc2ccccc2)cc1)OCc1ccccc1`, the IC50 was more than 99.5 µM. The compound `CCn1c(=O)c(N2CC[C@H](NC(=O)NC3CC3)C2)nc2ccccc21` registered an IC50 of more than 99.5 µM. The result for `NCc1cccc(NC(=O)[C@@H](NC(=O)OCc2ccccc2)c2ccc(-c3ccc4cn[nH]c4c3)cc2)c1` reads 6.07 µM and 5.74 µM. With `CCn1c(=O)c(N2CC(S(=O)(=O)N3CCCC3)C2)nc2ccccc21` the figure was more than 99.5 µM; with `CS(=O)(=O)NC(=O)c1cc(Cl)ccc1NS(=O)(=O)c1ccc(Oc2ccccc2Cl)cc1`, 36.2 µM; with `O=C(N[C@@H](C(=O)NCc1ccncc1)c1ccc(OCc2ccccc2)cc1)OCc1ccccc1`, more than 99.5 µM. In the case of `CCn1c(=O)c(N2CC[C@@H](Cc3ccncc3)C2)nc2ccccc21`, the IC50 was more than 99.5 µM. With `CCc1ccccc1-c1ccc([C@@H](NC(=O)OCc2ccccc2)C(=O)Nc2cccc(CN)c2)cc1` the figure was 5.83 µM; with `CCn1cc(C2=CCCNC2)nc(N2CC[C@@H](CO)C2)c1=O`, more than 99.5 µM; with `CCn1c(=O)c(N2CC3(CCCCC3)C[C@H]2CO)nc2ccccc21`, more than 99.5 µM. The result for `NCc1cccc(NC(=O)[C@@H](NC(=O)OCc2ccccc2)c2ccc(-c3ccc(N)nc3)cc2)c1` reads 73.2 µM. With `Cn1cc(-c2ccc([C@@H](NC(=O)OCc3ccccc3)C(=O)Nc3cccc(CN)c3)cc2)cn1` the figure was more than 99.5 µM. `CCn1cc(-c2c[nH]c3ncccc23)nc(N2CC[C@@H](CO)C2)c1=O` had an IC50 of more than 99.5 µM.

The compound `CCn1cc(-c2ccc(C(F)F)nc2)nc(N2CC[C@@H](CO)C2)c1=O` displayed an IC50 of more than 99.5 µM. The compound `CCn1c(=O)c(N2C[C@H]3CN(C)CC[C@H]3C2)nc2ccccc21` returned an IC50 of more than 99.5 µM. The result for `COc1ccc(COc2ccc(S(=O)(=O)Nc3ccc(Cl)cc3C(=O)O)cc2)nc1` reads more than 99.5 µM. The result for `NCc1cccc(NC(=O)[C@@H](NC(=O)OCc2ccccc2)c2ccc(-c3cncnc3)cc2)c1` reads more than 99.5 µM; that for `CC(C)(C)c1ncc(-c2ccc([C@@H](NC(=O)OCc3ccccc3)C(=O)Nc3cccc(CN)c3)cc2)o1`, 36.3 µM. With `CCn1c(=O)c(N2CC[C@]3(CCCN(C)C3)C2)nc2ccccc21` the figure was more than 99.5 µM; with `CCn1c(=O)c(N2C[C@H]3OCCN(C(C)=O)[C@H]3C2)nc2ccccc21`, more than 99.5 µM. Turning to `NCc1cccc(NC(=O)[C@@H](NC(=O)OCc2ccccc2)c2cccc(OCc3cncnc3)c2)c1`, the IC50 was more than 99.5 µM. `O=C(N[C@@H](C(=O)Nc1cccnc1)c1ccc(OCc2ccccc2)cc1)OCc1ccccc1` yielded an IC50 of more than 99.5 µM. With `CCn1cc(-c2ccc(S(C)(=O)=O)cc2)nc(N2CC[C@@H](CO)C2)c1=O` the figure was more than 99.5 µM; with `CCn1c(=O)c(N2CC[C@@]3(CCCN3C)C2)nc2ccccc21`, more than 99.5 µM. Compound `CNc1nc2cc(-c3ccc4c(c3)C[C@H](N)C4)ccc2o1` registered an IC50 of more than 99.5 µM. In turn, `Cc1ccc(F)c(-c2ccc([C@@H](NC(=O)OCc3ccccc3)C(=O)Nc3cccc(CN)c3)cc2)c1` returned an IC50 of 6.81 µM.

`NCc1cccc(NC(=O)[C@@H](NC(=O)OCc2ccccc2)c2ccc(-c3ccncc3F)cc2)c1` registered an IC50 of 38.9 µM. `NCc1cccc(NC(=O)[C@@H](NC(=O)OCc2ccccc2)c2ccc(-c3cccnc3F)cc2)c1`: 45.1 µM corresponded to half-maximal inhibition (IC50). The IC50 values of the last two compounds are within 1.5-fold of each other. With `NCc1cccc(NC(=O)[C@@H](NC(=O)OCc2ccccc2)c2ccc(-c3cc4cccnc4s3)cc2)c1` the figure was 3.56 µM. The result for `O=C(O)c1cc(Cl)c(F)cc1NS(=O)(=O)c1ccc(Oc2ccccc2)cc1` reads 30.3 µM. With `COc1ccccc1-c1ccc([C@@H](NC(=O)OCc2ccccc2)C(=O)Nc2cccc(CN)c2)cc1` the figure was 27.2 µM; with `CCn1cc(-c2ccc(CN(C)C)cc2)nc(N2CC[C@@H](CO)C2)c1=O`, more than 99.5 µM. The compound `CC(C)(CO)NC(=O)[C@@H](NC(=O)OCc1ccccc1)c1ccc(OCc2ccccc2)cc1` returned an IC50 of more than 99.5 µM.

The compound `CCn1cc(-c2ccc([C@@H](NC(=O)OCc3ccccc3)C(=O)Nc3cccc(CN)c3)cc2)cn1` came in with an IC50 of 97.2 µM. This lies in the double-digit micromolar range.

In the case of `Cc1n[nH]cc1-c1ccc([C@@H](NC(=O)OCc2ccccc2)C(=O)Nc2cccc(CN)c2)cc1`, the IC50 was more than 99.5 µM. The result for `Cn1cc(-c2ccc([C@@H](NC(=O)OCc3ccccc3)C(=O)Nc3cccc(CN)c3)cc2)ccc1=O` reads more than 99.5 µM; that for `CCn1c(=O)c(N2CCC[C@H]2CN2CCCC2)nc2ccccc21`, more than 99.5 µM; that for `CCn1cc(-c2cccc(-c3ccccc3)c2)nc(N2CC[C@@H](CO)C2)c1=O`, more than 99.5 µM. The result for `O=C(N[C@@H](C(=O)NCc1ccccn1)c1ccc(OCc2ccccc2)cc1)OCc1ccccc1` reads more than 99.5 µM; that for `CCn1cc(-c2cn(C)nc2C(F)(F)F)nc(N2CC[C@@H](CO)C2)c1=O`, more than 99.5 µM; that for `CCn1c(=O)c(N2CC[C@H](N3CCN(C)CC3)C2)nc2ccccc21`, more than 99.5 µM.

For the compound `CCn1cc(-c2ccncc2F)nc(N2CC[C@@H](CO)C2)c1=O`, the IC50 is more than 99.5 µM.

As to `CCn1c(=O)c(N2CCC[C@H]2c2ncccn2)nc2ccccc21`, the IC50 is more than 99.5 µM. The result for `CCn1cc(-c2ccccc2C(=O)OC)nc(N2CC[C@@H](CO)C2)c1=O` reads more than 99.5 µM.
